Assay results taken from patent US4112228A, “7-(D-α-Hydroxy-2-arylacetamido)-3-(2-carboxyalkyl-2,3-dihydro-s-tri azolo-[4,3-b]pyridazin-3-on-6-ylthiomethyl)-3-cephem-4-carboxylic acids and derivatives” (priority 1977, dated 1978).
≈ marks a conversion by molar mass, not a printed value. Read-outs that look alike come from different tables or passages of the source.

Key:
E. coli = assay: MIC by Steers' agar dilution method; format: cell-based; conditions: Escherichia coli, read-out: MIC
Shig. sonnei = assay: MIC by Steers' agar dilution method; format: cell-based; conditions: Shigella sonnei, MHA
B. anthracis = assay: microbe, parasite or virus in culture; format: cell-based; conditions: Bacillus anthracis
bacteria of Table 4 = assay: Media effect on MIC (Nutrient, Mueller-Hinton, Heart-Infusion agar); format: cell-based; conditions: NA, MHA, HIA
St. faecalis = assay: MIC by Steers' agar dilution method; conditions: Enterococcus faecalis
Pr. rettgeri = assay: MIC by Steers' agar dilution method; conditions: Providencia rettgeri
Enterob. cloacae = assay: MIC by Steers' agar dilution method
Citrobacter sp. = assay: MIC by Steers' agar dilution method

Compound: O=C(O)Cn1nc2ccc(SCC3=C(C(=O)O)N4C(=O)C(NC(=O)[C@H](O)c5ccccc5)[C@H]4SC3)nn2c1=O (stereo partly drawn) [BB-S488, 7-(D-Mandelamido)-3-(2-carboxymethyl-2,3-dihydro-s-triazolo[4,3-b]pyridazin-3-on-6-ylthiomethyl)-3-cephem-4-carboxylic Acid]
- MIC (E. coli; Ec-36 A15147 (β-lactamase), MHA, Table 4): 6.3 µg/mL (≈ 11 µM)
- MIC (E. coli; Ec-36 A15147 (β-lactamase), NA, Table 4): 6.3 µg/mL (≈ 11 µM)
- MIC (E. coli; Ec-36 A15147, MHA, Table 3): 3.1 µg/mL (≈ 5.41 µM)
- MIC (E. coli; Ec-40 A20361, MHA, Table 3): 0.2 µg/mL (≈ 0.349 µM)
- MIC (E. coli; Ec-44 A9535, MHA, Table 3): 0.1 µg/mL (≈ 0.175 µM)
- MIC (E. coli; Ec-45 A15148, MHA, Table 3): 3.1 µg/mL (≈ 5.41 µM)
- MIC (E. coli; Ec-46 A15164 (β-lactamase), HIA, Table 4): > 100 µg/mL
- MIC (E. coli; Ec-46 A15164 (β-lactamase), MHA, Table 4): 100 µg/mL (≈ 175 µM)
- MIC (E. coli; Ec-46 A15164 (β-lactamase), NA, Table 4): 50 µg/mL (≈ 87.3 µM)
- MIC (E. coli; Ec-46 A15164, MHA, Table 3): 25 µg/mL (≈ 43.7 µM)
- MIC (E. coli; Ec-47 A15170, MHA, Table 3): 100 µg/mL (≈ 175 µM)
- MIC (E. coli; Ec-49 A20107, MHA, Table 3): 0.4 µg/mL (≈ 0.699 µM)
- MIC (E. coli; Ec-50 A20109, MHA, Table 3): 0.2 µg/mL (≈ 0.349 µM)
- MIC (E. coli; Ec-51 A20343 (β-lactamase), HIA, Table 4): > 100 µg/mL
- MIC (E. coli; Ec-51 A20343 (β-lactamase), MHA, Table 4): > 100 µg/mL
- MIC (E. coli; Ec-51 A20343 (β-lactamase), NA, Table 4): 50 µg/mL (≈ 87.3 µM)
- MIC (E. coli; Ec-51 A20343, MHA, Table 3): 50 µg/mL (≈ 87.3 µM)
- MIC (E. coli; Ec-56 A20365, MHA, Table 3): 25 µg/mL (≈ 43.7 µM)
- MIC (E. coli; Ec-58 A9675, MHA, Table 3): 0.4 µg/mL (≈ 0.699 µM)
- MIC (E. coli; Ec-59 A20766, MHA, Table 3): 0.2 µg/mL (≈ 0.349 µM)
- MIC (E. coli; Ec-62 A20895, MHA, Table 3): 0.4 µg/mL (≈ 0.699 µM)
- MIC (E. coli; Juhl A15119, MHA, Table 1): 0.2 µg/mL (≈ 0.349 µM)
- MIC (E. coli; Juhl, MHA, Example 10): 0.2 µg/mL (≈ 0.349 µM)
- MIC (E. coli; NIHJ, MHA, Example 10): 0.2 µg/mL (≈ 0.349 µM)
- MIC (E. coli; NIHJ, MHA, Table 1): 0.025 µg/mL (≈ 0.0437 µM)
- MIC (E. coli; strain not named (1st of 3), MHA, Example 10): 0.1 µg/mL (≈ 0.175 µM)
- MIC (E. coli; strain not named (2nd of 3), MHA, Example 10): 0.05 µg/mL (≈ 0.0873 µM)
- MIC (E. coli; strain not named (3rd of 3), MHA, Example 10): 3.1 µg/mL (≈ 5.41 µM)
- MIC (Shig. sonnei; A9516, Table 1): 0.025 µg/mL (≈ 0.0437 µM)
- MIC (Shig. sonnei; Example 10): 0.05 µg/mL (≈ 0.0873 µM)
- MIC (Shig. sonnei; Ss-1 Yale, Table 3): 0.1 µg/mL (≈ 0.175 µM)
- MIC (B. anthracis; Ba-3 A9504, HIA, Table 4): 0.2 µg/mL (≈ 0.349 µM)
- MIC (B. anthracis; Ba-3 A9504, MHA, Table 4): 0.2 µg/mL (≈ 0.349 µM)
- MIC (B. anthracis; Ba-3 A9504, NA, Table 4): 0.4 µg/mL (≈ 0.699 µM)
- MIC (B. anthracis; MHA, Example 10): 0.2 µg/mL (≈ 0.349 µM)
- Media effect on MIC (bacteria of Table 4): little media effect
- MIC (St. faecalis; A9536, MHA, Table 1): 100 µg/mL (≈ 175 µM)
- MIC (St. faecalis; MHA, Example 10): > 100 µg/mL
- MIC (St. faecalis; Sf-3 S. faecalis A9536, HIA, Table 4): > 100 µg/mL
- MIC (St. faecalis; Sf-3 S. faecalis A9536, MHA, Table 4): > 100 µg/mL
- MIC (St. faecalis; Sf-3 S. faecalis A9536, NA, Table 4): > 100 µg/mL
- MIC (Pr. rettgeri; A15167, MHA, Table 1): 0.05 µg/mL (≈ 0.0873 µM)
- MIC (Pr. rettgeri; MHA, Example 10): 0.2 µg/mL (≈ 0.349 µM)
- MIC (Pr. rettgeri; Pr-1 A15167, HIA, Table 4): 0.1 µg/mL (≈ 0.175 µM)
- MIC (Pr. rettgeri; Pr-1 A15167, MHA, Table 3): 0.1 µg/mL (≈ 0.175 µM)
- MIC (Pr. rettgeri; Pr-1 A15167, MHA, Table 4): 0.05 µg/mL (≈ 0.0873 µM)
- MIC (Pr. rettgeri; Pr-1 A15167, NA, Table 4): 0.4 µg/mL (≈ 0.699 µM)
- MIC (Pr. rettgeri; Pr-2 A9637, MHA, Table 3): 0.1 µg/mL (≈ 0.175 µM)
- MIC (Pr. rettgeri; Pr-4 A20645, MHA, Table 3): 0.1 µg/mL (≈ 0.175 µM)
- MIC (Pr. rettgeri; Pr-5 A20915, MHA, Table 3): 0.2 µg/mL (≈ 0.349 µM)
- MIC (Pr. rettgeri; Pr-6 A20920, MHA, Table 3): 0.1 µg/mL (≈ 0.175 µM)
- MIC (Enterob. cloacae; A9656, MHA, Table 1): 3.1 µg/mL (≈ 5.41 µM)
- MIC (Enterob. cloacae; El-1 A9656, HIA, Table 4): 6.3 µg/mL (≈ 11 µM)
- MIC (Enterob. cloacae; El-1 A9656, MHA, Table 3): 3.1 µg/mL (≈ 5.41 µM)
- MIC (Enterob. cloacae; El-1 A9656, MHA, Table 4): 3.1 µg/mL (≈ 5.41 µM)
- MIC (Enterob. cloacae; El-1 A9656, NA, Table 4): 12.5 µg/mL (≈ 21.8 µM)
- MIC (Enterob. cloacae; El-2 A20364 (β-lactamase), HIA, Table 4): 6.3 µg/mL (≈ 11 µM)
- MIC (Enterob. cloacae; El-2 A20364 (β-lactamase), MHA, Table 4): 3.1 µg/mL (≈ 5.41 µM)
- MIC (Enterob. cloacae; El-2 A20364 (β-lactamase), NA, Table 4): 12.5 µg/mL (≈ 21.8 µM)
- MIC (Enterob. cloacae; El-2 A20364, MHA, Table 3): 3.1 µg/mL (≈ 5.41 µM)
- MIC (Enterob. cloacae; El-4 A20650, MHA, Table 3): 1.6 µg/mL (≈ 2.79 µM)
- MIC (Enterob. cloacae; El-6 A9657, MHA, Table 3): 0.8 µg/mL (≈ 1.4 µM)
- MIC (Enterob. cloacae; El-7 A9659, MHA, Table 3): 1.6 µg/mL (≈ 2.79 µM)
- MIC (Enterob. cloacae; El-8 A9655, MHA, Table 3): 1.6 µg/mL (≈ 2.79 µM)
- MIC (Enterob. cloacae; El-9 A20021, MHA, Table 3): > 100 µg/mL
- MIC (Enterob. cloacae; El-11 A20344 (β-lactamase), HIA, Table 4): > 100 µg/mL
- MIC (Enterob. cloacae; El-11 A20344 (β-lactamase), MHA, Table 4): > 100 µg/mL
- MIC (Enterob. cloacae; El-11 A20344 (β-lactamase), NA, Table 4): > 100 µg/mL
- MIC (Enterob. cloacae; El-11 A20344, MHA, Table 3): > 100 µg/mL
- MIC (Enterob. cloacae; El-12 A21006, MHA, Table 3): 1.6 µg/mL (≈ 2.79 µM)
- MIC (Enterob. cloacae; El-14 A20953, MHA, Table 3): 0.8 µg/mL (≈ 1.4 µM)
- MIC (Enterob. cloacae; MHA, Example 10): 3.1 µg/mL (≈ 5.41 µM)
- MIC (Citrobacter sp.; Citrobacter): 1.6 µg/mL (≈ 2.79 µM)
- MIC (Citrobacter sp.; Cx-2 A20694, MHA, Table 3): 1.6 µg/mL (≈ 2.79 µM)
- MIC (Citrobacter sp.; Cx-3 A20695, MHA, Table 3): 1.6 µg/mL (≈ 2.79 µM)
